How the values were obtained:
Psf3 [1] = molecular target: T1, Psf3 (Pseudomonas syringae, UniProt I6R485); assay: NADPH consumption at […] nm, Michaelis-Menten fit; format: biochemical; settings: 250 uM NADPH (saturating), 50 mM HEPES pH 7.5
T1 sequence (I6R485 1-295): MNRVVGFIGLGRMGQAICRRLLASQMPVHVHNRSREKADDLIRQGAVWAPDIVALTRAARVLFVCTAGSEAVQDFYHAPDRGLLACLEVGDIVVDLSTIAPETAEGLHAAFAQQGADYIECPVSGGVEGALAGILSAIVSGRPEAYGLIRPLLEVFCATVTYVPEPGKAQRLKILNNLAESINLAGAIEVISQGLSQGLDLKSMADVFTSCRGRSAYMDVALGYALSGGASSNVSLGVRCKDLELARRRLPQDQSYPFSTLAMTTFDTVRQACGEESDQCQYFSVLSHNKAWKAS

Psf3 [2] = molecular target: T1, Psf3; assay: […] NMR of reverse; format: biochemical; settings: 2 mM NADP+, 1 mM (S)-2-HPP, pH 7.5, room temperature

`CC(=O)CP(=O)(O)O` [2-OPP] was tested, and the KM (Psf3 [1]) was “Kinetic parameters, with respect to 2-OPP and determined by monitoring the consumption of NADPH”.
`C[C@H](O)CP(=O)(O)O` [(S)-2-HPP] was tested, and the “31P NMR of reverse (oxidation) reaction” value (Psf3 [2]) was “reaction with (S)-2-HPP resulted in a new peak that is consistent with 2-OPP”.
